The values below come from ChEMBL document CHEMBL4052742, “Optimization of 1H-indazol-3-amine derivatives as potent fibroblast growth factor receptor inhibitors” (Bioorg Med Chem Lett, 2017).

Structures are written as SMILES. A value given as a limit tells only on which side of the number the result lay.

The target in assay [1] is Fibroblast growth factor receptor 2 (Homo sapiens, UniProt P21802). Briefly: Inhibition of recombinant FGFR2 (unknown origin) using poly (Glu,Tyr)4:1 as substrate after 60 mins by ELISA based spectrophotometric analysis. A general note: In an ELISA, binding on a coated surface is turned into a signal by an enzyme label.
The test system of assay [2] is KG-1. The assay is described as follows: Antiproliferative activity against human KG1 cells after 72 hrs by CCK-8 assay. Conditions: KG-1, 72 h. (Tetrazolium dyes change colour on reduction, which living cells bring about.)
The test system of assay [3] is SNU-16. The assay is described as follows: Antiproliferative activity against human SNU16 cells after 72 hrs by CCK-8 assay. Conditions: SNU-16, 72 h.
Assay [4] concerns the target Fibroblast growth factor receptor 1 (Homo sapiens, UniProt P11362). Briefly: Inhibition of recombinant FGFR1 (unknown origin) using poly (Glu,Tyr)4:1 as substrate after 60 mins by ELISA based spectrophotometric analysis.

Chain of Fibroblast growth factor receptor 1 (P11362 whole entry): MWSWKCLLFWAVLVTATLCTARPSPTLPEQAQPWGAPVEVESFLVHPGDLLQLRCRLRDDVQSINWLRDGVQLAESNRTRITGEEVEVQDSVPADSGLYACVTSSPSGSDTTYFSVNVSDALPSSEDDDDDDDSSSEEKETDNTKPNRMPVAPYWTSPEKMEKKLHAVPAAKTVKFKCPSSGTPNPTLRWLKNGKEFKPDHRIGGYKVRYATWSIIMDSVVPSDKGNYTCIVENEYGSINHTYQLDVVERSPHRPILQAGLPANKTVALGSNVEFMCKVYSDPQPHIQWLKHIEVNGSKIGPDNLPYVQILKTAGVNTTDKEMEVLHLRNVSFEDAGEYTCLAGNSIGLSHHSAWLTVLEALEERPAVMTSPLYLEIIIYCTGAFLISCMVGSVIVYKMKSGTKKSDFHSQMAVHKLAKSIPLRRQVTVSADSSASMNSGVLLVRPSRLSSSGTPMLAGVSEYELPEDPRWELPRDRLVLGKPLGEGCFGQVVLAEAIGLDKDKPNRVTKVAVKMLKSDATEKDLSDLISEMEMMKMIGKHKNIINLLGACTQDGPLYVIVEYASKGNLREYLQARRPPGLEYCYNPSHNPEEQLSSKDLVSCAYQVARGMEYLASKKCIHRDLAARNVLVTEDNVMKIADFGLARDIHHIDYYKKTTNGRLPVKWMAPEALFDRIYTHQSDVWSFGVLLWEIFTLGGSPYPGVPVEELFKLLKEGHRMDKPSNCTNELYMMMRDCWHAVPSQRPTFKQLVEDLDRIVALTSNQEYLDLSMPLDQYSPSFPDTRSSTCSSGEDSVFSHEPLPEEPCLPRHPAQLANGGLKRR
Chain of Fibroblast growth factor receptor 2 (P21802 whole entry): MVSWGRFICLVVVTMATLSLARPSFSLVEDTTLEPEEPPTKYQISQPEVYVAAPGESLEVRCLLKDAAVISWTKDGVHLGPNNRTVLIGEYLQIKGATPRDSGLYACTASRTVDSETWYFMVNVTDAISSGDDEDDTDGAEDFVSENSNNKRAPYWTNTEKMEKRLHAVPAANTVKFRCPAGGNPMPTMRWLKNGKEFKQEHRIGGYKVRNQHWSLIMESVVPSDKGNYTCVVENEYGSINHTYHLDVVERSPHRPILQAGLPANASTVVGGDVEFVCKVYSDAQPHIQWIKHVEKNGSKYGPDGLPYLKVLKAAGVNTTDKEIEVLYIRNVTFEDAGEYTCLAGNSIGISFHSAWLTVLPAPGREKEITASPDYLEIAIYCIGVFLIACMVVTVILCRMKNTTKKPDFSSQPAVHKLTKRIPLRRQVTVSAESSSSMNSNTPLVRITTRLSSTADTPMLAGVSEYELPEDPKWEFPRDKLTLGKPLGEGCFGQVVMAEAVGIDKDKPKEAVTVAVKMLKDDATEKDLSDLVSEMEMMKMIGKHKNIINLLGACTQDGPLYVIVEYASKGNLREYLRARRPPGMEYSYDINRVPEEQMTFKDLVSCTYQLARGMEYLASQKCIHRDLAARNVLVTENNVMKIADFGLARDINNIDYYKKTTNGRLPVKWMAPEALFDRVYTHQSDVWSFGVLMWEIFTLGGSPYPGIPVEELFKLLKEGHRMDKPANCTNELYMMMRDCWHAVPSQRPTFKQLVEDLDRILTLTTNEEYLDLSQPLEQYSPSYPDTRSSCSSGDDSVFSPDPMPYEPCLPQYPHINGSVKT

Usually IC50 stands for the midpoint of a concentration-inhibition curve. Turning to `CCN1CCN(c2ccc(C(=O)Nc3n[nH]c4cc(-c5cccc(OC)c5F)ccc34)cc2C(F)(F)F)CC1`, the IC50 in assay [1], in assay [2], in assay [3] and in assay [4] was more than 1000 nM throughout.
For `CCN1CCN(c2ccc(C(=O)Nc3n[nH]c4cc(-c5c(F)cc(F)c(OC)c5F)ccc34)cc2)CC1`, the IC50 in assay [2] and in assay [3] was more than 1000 nM in each case.
`CCN1CCN(c2ccc(C(=O)Nc3n[nH]c4cc(-c5cccc(OC)c5F)ccc34)cc2)CC1`: the IC50 was 284 nM in assay [2] and 591 nM in assay [3].
The like results for `COCCN1CCN(c2ccc(C(=O)Nc3n[nH]c4cc(-c5c(F)ccc(OC)c5F)ccc34)cc2)CC1` were, in that order, 47.3 nM and 431 nM.
Turning to `CCN1CCN(c2ccc(C(=O)Nc3n[nH]c4cc(-c5cccc(OC)c5F)c(F)cc34)cc2)CC1`, the concentration for half-maximal inhibition (IC50) is 684 nM in assay [2] and more than 1000 nM in assay [3].
Take `COc1ccc(F)c(-c2ccc3c(NC(=O)c4ccc(N5C[C@@H](C)N[C@@H](C)C5)cc4)n[nH]c3c2)c1F`: the IC50 in assay [2] was determined as 348 nM; in assay [3], 582 nM.
With `COc1ccc(F)c(-c2ccc3c(NC(=O)c4ccc(N5CCCN(C)CC5)cc4)n[nH]c3c2)c1F`, the figures for the IC50 in assay [2] and in assay [3] were 51.5 nM and 102 nM, respectively.
Take `COc1cccc(-c2ccc3c(NC(=O)c4ccc(N5CCN(C)CC5)c(F)c4)n[nH]c3c2)c1F`: the IC50 in assay [2] and in assay [3] was more than 1000 nM in each case.
Consider `COc1ccc(F)c(-c2ccc3c(NC(=O)c4ccc(N(C)CCN(C)C)cc4)n[nH]c3c2)c1F`, for which the IC50 is 333 nM in assay [2] and 366 nM in assay [3].
Take `COc1cccc(-c2ccc3c(NC(=O)c4ccc(N5CCN(C)CC5)cc4F)n[nH]c3c2)c1F`: the IC50 in assay [1], in assay [2], in assay [3] and in assay [4] was more than 1000 nM each time.
On to `COc1ccc(F)c(-c2ccc3c(NC(=O)c4ccc(N5CCN(C)CC5)cc4)n[nH]c3c2)c1F`, for which the IC50 in assay [1] was less than 4.1 nM; in assay [2], 41.5 nM; in assay [3] it was 35.6 nM.
Regarding `COCCN1CCN(c2ccc(C(=O)Nc3n[nH]c4cc(-c5c(F)cc(F)c(OC)c5F)ccc34)cc2)CC1`, the IC50 in assay [2] and in assay [3] was more than 1000 nM throughout.
In the case of `COc1ccc(F)c(-c2ccc3c(NC(=O)c4ccc(N5CCN(C(C)=O)CC5)cc4)n[nH]c3c2)c1F`, the half-inhibitory concentration (IC50) in assay [1] turned out to be 2.9 nM; in assay [2] it was 595 nM; in assay [3], 322 nM.
For the compound `CCN1CCN(c2ccc(C(=O)Nc3n[nH]c4cc(-c5cccc(OC)c5F)cc(F)c34)cc2)CC1`, the IC50 in assay [2] and in assay [3] was more than 1000 nM throughout.
For the compound `CCN1CCN(c2ccc(C(=O)Nc3n[nH]c4cc(-c5c(F)ccc(OC)c5F)ccc34)cc2)CC1`, the figures for the IC50 in assay [2], in assay [3] and in assay [4] were 25.3 nM, 77.4 nM and less than 4.1 nM, respectively.
Take `COc1cc(CCc2cc(NC(=O)c3ccc(N4C[C@@H](C)N[C@@H](C)C4)cc3)n[nH]2)cc(OC)c1` [FEXAGRATINIB]: the IC50 in assay [2] stood at 3.3 nM; in assay [3] it was 3.4 nM.
